Consider ten compounds from patent US20240269139A1, “COMPOUNDS FOR TARGETED PROTEIN DEGRADATION OF KINASES” (DANA-FARBER CANCER INSTITUTE, INC., priority 2020, published 2024).

Where “and” joins values, the source holds several entries; their conditions need not be identical. Identical values can stand only once. Like-named read-outs stand apart in the source and are kept apart here.

Common to all, as to type: cell-based
Test [1] concerns the target protein kinases (human kinome) (Homo sapiens, UniProt P53671). As to conditions: for logFC LIMK2: LIMK2 (P53671), down; for logFC of LIMK2: LIMK2 P53671.
Test [2] concerns the target protein kinases (human kinome) (Homo sapiens, UniProt Q13233).
Test [3] concerns the target protein kinases (human kinome) (Homo sapiens, UniProt Q8TDR2).
Test [4] addresses protein kinases (human kinome) (Homo sapiens, UniProt Q9HBH9). The note with it: for logFC MKNK2 (Q9HBH9-1): direction down; for logFC: MKNK2 (Q9HBH9-1).
For test [5], the target named is protein kinases (human kinome) (Homo sapiens, UniProt P45984). The note with it: MAPK9 P45984-1.
Sequence of protein kinases (human kinome) (Homo sapiens, UniProt P45984) (P45984 whole entry): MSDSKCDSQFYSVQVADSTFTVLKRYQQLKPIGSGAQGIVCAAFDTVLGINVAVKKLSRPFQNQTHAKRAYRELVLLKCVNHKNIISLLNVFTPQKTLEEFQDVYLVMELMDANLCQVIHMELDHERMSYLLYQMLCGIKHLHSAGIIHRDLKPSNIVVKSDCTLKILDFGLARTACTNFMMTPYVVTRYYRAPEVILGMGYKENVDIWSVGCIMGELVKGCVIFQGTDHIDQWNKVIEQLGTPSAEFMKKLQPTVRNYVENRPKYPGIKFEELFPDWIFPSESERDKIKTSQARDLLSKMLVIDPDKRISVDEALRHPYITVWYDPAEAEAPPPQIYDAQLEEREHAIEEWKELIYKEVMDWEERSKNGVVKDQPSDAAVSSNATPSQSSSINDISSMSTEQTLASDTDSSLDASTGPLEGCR
Test [6] has as its target protein kinases (human kinome) (Homo sapiens, UniProt P24941).
Test [7] concerns the target protein kinases (human kinome) (Homo sapiens, UniProt P50613). The note with it: for logFC: CDK7 (P50613) protein abundance, degrader vs DMSO, down; for logFC CDK7: CDK7 P50613.
Test [8] concerns the target protein kinases (human kinome) (Homo sapiens, UniProt Q07912). The note with it: for logFC TNK2 (Q07912-1): direction down; for logFC TNK2: TNK2 (Q07912-1).
The target of test [9] is protein kinases (human kinome) (Homo sapiens, UniProt Q00535). As to conditions: for logFC of CDK5: Accession Q00535; for logFC CDK5 (Q00535): direction of change down.
Sequence of protein kinases (human kinome) (Homo sapiens, UniProt Q00535) (Q00535 whole entry): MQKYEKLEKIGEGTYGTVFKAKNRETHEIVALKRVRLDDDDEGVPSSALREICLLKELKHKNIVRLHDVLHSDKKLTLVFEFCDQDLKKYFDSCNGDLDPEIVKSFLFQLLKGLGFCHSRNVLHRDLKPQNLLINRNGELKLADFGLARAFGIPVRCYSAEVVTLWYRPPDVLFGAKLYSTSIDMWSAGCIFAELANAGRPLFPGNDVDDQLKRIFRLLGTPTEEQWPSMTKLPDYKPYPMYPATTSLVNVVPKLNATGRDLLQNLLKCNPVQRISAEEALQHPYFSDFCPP
Where [10] appears, read: Accession Q13233, experiment wp076, direction down.
Where [11] appears, read: MAP3K1 (Q13233), experiment wp076.

Sequence of protein kinases (human kinome) (Homo sapiens, UniProt Q07912) (Q07912 whole entry): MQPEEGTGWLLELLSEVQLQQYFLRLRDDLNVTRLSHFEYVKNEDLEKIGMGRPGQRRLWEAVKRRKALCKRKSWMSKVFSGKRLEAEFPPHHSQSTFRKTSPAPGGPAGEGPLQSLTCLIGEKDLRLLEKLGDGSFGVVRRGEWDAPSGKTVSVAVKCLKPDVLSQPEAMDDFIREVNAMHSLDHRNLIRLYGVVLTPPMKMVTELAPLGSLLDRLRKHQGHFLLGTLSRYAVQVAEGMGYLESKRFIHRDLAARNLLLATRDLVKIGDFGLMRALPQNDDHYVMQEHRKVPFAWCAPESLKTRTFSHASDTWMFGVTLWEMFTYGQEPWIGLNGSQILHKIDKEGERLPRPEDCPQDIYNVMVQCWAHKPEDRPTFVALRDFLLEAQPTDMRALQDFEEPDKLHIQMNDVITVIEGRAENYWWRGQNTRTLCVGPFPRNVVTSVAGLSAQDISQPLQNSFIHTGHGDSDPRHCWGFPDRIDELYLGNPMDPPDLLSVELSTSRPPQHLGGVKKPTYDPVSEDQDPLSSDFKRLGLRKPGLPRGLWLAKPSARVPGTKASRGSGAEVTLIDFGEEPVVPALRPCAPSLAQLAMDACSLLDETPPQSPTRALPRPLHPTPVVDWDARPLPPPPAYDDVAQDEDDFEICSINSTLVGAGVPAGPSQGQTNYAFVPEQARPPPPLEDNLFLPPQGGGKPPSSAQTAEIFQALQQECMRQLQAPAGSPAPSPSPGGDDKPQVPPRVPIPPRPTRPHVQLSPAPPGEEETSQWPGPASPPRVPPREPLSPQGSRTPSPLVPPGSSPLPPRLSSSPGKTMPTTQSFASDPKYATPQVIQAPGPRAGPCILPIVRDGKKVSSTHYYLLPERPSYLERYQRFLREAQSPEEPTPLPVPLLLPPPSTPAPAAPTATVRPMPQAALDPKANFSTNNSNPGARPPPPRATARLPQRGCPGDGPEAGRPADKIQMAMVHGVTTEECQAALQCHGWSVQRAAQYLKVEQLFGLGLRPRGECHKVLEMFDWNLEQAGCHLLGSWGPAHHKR
Sequence of protein kinases (human kinome) (Homo sapiens, UniProt P53671) (P53671 whole entry): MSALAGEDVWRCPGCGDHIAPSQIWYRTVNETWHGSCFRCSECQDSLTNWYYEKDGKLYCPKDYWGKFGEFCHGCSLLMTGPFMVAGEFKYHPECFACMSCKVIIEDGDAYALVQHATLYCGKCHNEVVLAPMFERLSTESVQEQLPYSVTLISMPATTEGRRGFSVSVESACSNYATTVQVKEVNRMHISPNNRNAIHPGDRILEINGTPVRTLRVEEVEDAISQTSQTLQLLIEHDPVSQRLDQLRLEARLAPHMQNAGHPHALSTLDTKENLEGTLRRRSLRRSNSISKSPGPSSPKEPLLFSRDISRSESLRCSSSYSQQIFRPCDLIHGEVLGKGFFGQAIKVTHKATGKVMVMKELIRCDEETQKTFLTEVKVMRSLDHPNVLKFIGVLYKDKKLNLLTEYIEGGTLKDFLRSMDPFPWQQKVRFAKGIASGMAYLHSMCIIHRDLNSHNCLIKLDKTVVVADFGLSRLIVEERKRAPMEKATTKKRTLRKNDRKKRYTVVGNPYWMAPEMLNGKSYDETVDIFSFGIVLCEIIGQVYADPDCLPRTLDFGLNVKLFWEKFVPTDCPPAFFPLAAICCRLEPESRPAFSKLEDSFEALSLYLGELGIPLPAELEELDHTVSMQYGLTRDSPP
Sequence of protein kinases (human kinome) (Homo sapiens, UniProt Q9HBH9) (Q9HBH9 whole entry): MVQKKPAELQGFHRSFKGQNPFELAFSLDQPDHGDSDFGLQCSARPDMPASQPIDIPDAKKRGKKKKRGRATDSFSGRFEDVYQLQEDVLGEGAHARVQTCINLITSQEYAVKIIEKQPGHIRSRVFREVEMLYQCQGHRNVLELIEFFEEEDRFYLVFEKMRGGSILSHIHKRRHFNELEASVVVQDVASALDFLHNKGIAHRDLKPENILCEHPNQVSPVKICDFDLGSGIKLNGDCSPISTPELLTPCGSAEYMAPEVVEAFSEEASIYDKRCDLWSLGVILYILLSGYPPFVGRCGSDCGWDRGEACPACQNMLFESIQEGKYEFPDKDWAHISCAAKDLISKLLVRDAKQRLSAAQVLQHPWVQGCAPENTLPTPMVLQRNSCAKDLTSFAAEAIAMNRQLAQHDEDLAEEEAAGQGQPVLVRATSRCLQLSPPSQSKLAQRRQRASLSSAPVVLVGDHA
Sequence of protein kinases (human kinome) (Homo sapiens, UniProt Q8TDR2) (Q8TDR2 whole entry): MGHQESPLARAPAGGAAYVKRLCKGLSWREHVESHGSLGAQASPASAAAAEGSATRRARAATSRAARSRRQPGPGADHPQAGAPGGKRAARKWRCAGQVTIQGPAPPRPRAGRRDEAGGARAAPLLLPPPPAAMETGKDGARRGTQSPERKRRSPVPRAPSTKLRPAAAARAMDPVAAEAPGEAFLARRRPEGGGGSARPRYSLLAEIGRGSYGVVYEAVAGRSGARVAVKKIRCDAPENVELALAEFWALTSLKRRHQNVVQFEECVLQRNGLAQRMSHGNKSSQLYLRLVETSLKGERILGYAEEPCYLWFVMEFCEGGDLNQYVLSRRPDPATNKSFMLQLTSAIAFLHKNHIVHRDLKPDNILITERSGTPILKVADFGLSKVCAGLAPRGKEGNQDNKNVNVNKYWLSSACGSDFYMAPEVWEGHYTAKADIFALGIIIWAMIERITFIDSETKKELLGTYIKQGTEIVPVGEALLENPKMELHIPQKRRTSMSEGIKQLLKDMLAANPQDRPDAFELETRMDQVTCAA
Sequence of protein kinases (human kinome) (Homo sapiens, UniProt Q13233) (Q13233 whole entry): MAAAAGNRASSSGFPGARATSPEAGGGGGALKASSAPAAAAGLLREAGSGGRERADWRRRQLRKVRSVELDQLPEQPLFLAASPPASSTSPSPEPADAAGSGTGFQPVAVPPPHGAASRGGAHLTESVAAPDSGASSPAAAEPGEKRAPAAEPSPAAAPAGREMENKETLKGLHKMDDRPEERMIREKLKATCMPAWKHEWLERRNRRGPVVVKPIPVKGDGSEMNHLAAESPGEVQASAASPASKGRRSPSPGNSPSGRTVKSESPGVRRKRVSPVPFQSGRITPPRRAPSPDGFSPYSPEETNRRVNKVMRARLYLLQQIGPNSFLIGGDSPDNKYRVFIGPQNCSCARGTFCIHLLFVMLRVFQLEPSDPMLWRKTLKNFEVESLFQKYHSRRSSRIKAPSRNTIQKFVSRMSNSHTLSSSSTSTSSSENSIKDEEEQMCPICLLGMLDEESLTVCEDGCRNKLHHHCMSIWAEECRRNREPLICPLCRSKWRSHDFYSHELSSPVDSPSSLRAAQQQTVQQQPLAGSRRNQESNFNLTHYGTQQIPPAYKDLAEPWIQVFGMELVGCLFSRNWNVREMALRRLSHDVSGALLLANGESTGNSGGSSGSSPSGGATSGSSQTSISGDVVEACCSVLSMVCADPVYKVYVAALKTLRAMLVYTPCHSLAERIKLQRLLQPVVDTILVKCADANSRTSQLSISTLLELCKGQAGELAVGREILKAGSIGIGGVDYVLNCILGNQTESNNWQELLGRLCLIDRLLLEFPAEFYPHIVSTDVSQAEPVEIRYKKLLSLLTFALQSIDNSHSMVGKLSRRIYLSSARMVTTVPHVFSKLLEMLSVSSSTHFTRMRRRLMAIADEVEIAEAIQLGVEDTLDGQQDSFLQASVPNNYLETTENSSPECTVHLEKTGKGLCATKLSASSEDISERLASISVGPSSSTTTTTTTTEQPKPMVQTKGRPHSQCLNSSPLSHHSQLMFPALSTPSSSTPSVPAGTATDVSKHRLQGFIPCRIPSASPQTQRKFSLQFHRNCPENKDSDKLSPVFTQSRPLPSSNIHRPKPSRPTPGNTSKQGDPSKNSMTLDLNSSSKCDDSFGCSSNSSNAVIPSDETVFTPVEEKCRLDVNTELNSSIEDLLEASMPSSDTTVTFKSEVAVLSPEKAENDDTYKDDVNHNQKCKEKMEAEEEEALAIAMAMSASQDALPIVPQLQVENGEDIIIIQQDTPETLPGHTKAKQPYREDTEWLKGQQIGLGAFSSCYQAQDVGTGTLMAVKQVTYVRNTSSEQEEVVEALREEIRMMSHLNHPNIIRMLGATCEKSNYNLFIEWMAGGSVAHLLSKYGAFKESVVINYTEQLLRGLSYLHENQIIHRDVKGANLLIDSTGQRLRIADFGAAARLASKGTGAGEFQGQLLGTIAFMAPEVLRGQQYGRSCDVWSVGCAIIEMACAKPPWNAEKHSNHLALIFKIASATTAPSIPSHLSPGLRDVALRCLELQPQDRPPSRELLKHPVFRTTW

In the case of `CS(=O)(=O)Nc1cccc(-c2csc3cnc(Nc4ccc(N5CCN(CCOCCOCCOc6cccc7c6C(=O)N(C6CCC(=O)NC6=O)C7=O)CC5)cc4)nc23)c1` (centres unmarked) [RSS0628], in [1] (experiment wp045), the “logFC LIMK2” value is −0.7182 and the “logFC of LIMK2” value was −0.7182.
Take `Nc1ncc(-c2ccc(S(=O)(=O)N(CCCNC(=O)CCOCCOCCOCCOCCOCCNc3cccc4c3C(=O)N(C3CCC(=O)NC3=O)C4=O)C3CC3)cc2)cc1-c1ccc2c(c1)CCNC2=O` (centres unmarked) [WH.10417.099]: the “logFC MAP3K1” value is on record as −0.5034 in test [2] (Accession Q13233, experiment wp056, direction down); −0.4673 in test [2] (Accession Q13233, experiment wp107, direction down); −0.5034 in [2] (MAP3K1 (Q13233), experiment wp056); −0.4673 in test [2] (MAP3K1 (Q13233), experiment wp107). The “logFC STK35” value in test [3] (Accession Q8TDR2, experiment wp056, direction down) is −2.073; in test [3] (Accession Q8TDR2, experiment wp103, direction down), −1.239; in test [3] (Accession Q8TDR2, experiment wp107, direction down), −1.954; in [3] (STK35 (Q8TDR2), experiment wp056), −2.073; in test [3] (STK35 (Q8TDR2), experiment wp103), −1.239; in [3] (STK35 (Q8TDR2), experiment wp107), −1.954. For the same compound, the entries for the “logFC LIMK2” value in [1] (experiment wp103) and in test [1] (experiment wp107) were −0.5747 and −0.3744, respectively. Further, the entries for the “logFC of LIMK2” value in test [1] (experiment wp103) and in [1] (experiment wp107) were −0.5747 and −0.3744, respectively.
For the compound `Cc1ccc(NC(=O)c2cccc(C(F)(F)F)c2)cc1N1Cc2cnc(Nc3ccc(N4CCN(CCCCCCOc5cccc6c5C(=O)N(C5CCC(=O)NC5=O)C6=O)CC4)nc3)nc2N(C)C1=O` (centres unmarked) [DB0663], the “logFC MKNK2 (Q9HBH9-1)” value in test [4] (Experiment wp045) is given as −0.4798. The compound further displayed a logFC in test [4] (experiment wp045) of −0.4798. In [5] (experiment wp045), the logFC was −0.598 and the “logFC MAPK9” value is recorded as −0.598. Also, in [1] (experiment wp045), the “logFC LIMK2” value was −1.367 and the “logFC of LIMK2” value is −1.367.
Regarding `Cc1ncsc1-c1ccc([C@H](C)NC(=O)[C@@H]2C[C@@H](O)CN2C(=O)[C@@H](NC(=O)CCCCCN2CCN(c3ccc(Nc4ncc5scc(-c6cccc(NS(C)(=O)=O)c6)c5n4)cc3)CC2)C(C)(C)C)cc1` [RSS0680, (2S,4R)-1-((S)-3,3-Dimethyl-2-(6-(4-(4-((7-(3-(methylsulfonamido)phenyl)thieno[3,2-d]pyrimidin-2-yl)amino)phenyl)piperazin-1-yl)hexanamido)butanoyl)-4-hydroxy-N—((S)-1-(4-(4-methylthiazol-5yl)phenyl)ethyl)pyrrolidine-2-carboxamide], the “logFC MKNK2 (Q9HBH9-1)” value in test [4] (Experiment wp080) is −0.4987; in test [4] (Experiment wp117), −0.5075. Further, the logFC was −0.4987 in test [4] (experiment wp080); −0.5075 in test [4] (experiment wp117); −1.017 and −1.219 in test [7]. The “logFC CDK2 (P24941-1)” value in test [6] (Experiment wp117) is reported as −0.6588; in [6] (experiment wp080), −0.4202; in test [6] (experiment wp080, direction of change down), −0.4202; in test [6] (experiment wp117, direction of change down) it was −0.6588. The “logFC STK35” value in test [3] (Accession Q8TDR2, experiment wp117, direction down) is −0.3937; in [3] (STK35 (Q8TDR2), experiment wp117) it was −0.3937. For the same compound, the “logFC LIMK2” value in test [1] (experiment wp080) was −0.8809; in test [1] (experiment wp117), −1.109. Moreover, the “logFC of LIMK2” value in test [1] (experiment wp080) was −0.8809; in test [1] (experiment wp117) it was −1.109. Further, the “logFC CDK7” value in test [7] (experiment wp080) is on record as −1.017; in test [7] (experiment wp117) it was −1.219.
`O=C1CCC(N2C(=O)c3cccc(NCCCCCCCCN4CCC(NC(=O)c5[nH]ncc5NC(=O)c5c(Cl)cccc5Cl)CC4)c3C2=O)C(=O)N1` (centres unmarked) [MFH.5.126.1]: the “logFC MAP3K1” value in [2] (setting [10]) and in [2] (setting [11]) was −0.5947 each time.
On to `Cc1ncsc1-c1ccc([C@H](C)NC(=O)[C@@H]2C[C@@H](O)CN2C(=O)[C@@H](NC(=O)CCOCCOCCN2CCN(c3ccc(Nc4ncc(Cl)c(Nc5ccccc5S(=O)(=O)C(C)C)n4)cc3)CC2)C(C)(C)C)cc1` [FMF.06.098.1], for which the “logFC CDK2 (P24941-1)” value is listed as −0.6501 in test [6] (Experiment wp108); −0.6501 in test [6] (experiment wp108, direction of change down); −0.8725 in [6] (experiment wp131); −0.8725 in test [6] (experiment wp131, direction of change down). Further, the “logFC STK35” value is −0.6029 in test [3] (Accession Q8TDR2, experiment wp108, direction down); −0.5116 in test [3] (Accession Q8TDR2, experiment wp114, direction down); −0.656 in test [3] (Accession Q8TDR2, experiment wp131, direction down); −0.6029 in [3] (STK35 (Q8TDR2), experiment wp108); −0.5116 in [3] (STK35 (Q8TDR2), experiment wp114); −0.656 in test [3] (STK35 (Q8TDR2), experiment wp131). The “logFC LIMK2” value in test [1] (experiment wp108) is on record as −0.8226; in test [1] (experiment wp114), −1.629; in test [1] (experiment wp131) it was −1.077. In addition, the entries for the “logFC of LIMK2” value in [1] (experiment wp108), in test [1] (experiment wp114) and in [1] (experiment wp131) were −0.8226, −1.629 and −1.077, respectively. Moreover, the “logFC TNK2 (Q07912-1)” value was −0.5108 in test [8] (Experiment wp108) and −0.5805 in test [8] (Experiment wp131). Further, the figures for the “logFC TNK2” value in [8] (experiment wp108) and in [8] (experiment wp131) were −0.5108 and −0.5805, respectively. In test [7], the logFC was −0.9016 and −1.137 and −0.9756. In addition, the results for the “logFC CDK7” value in [7] (experiment wp108), in test [7] (experiment wp114) and in [7] (experiment wp131) were −0.9016, −1.137 and −0.9756, respectively.
Take `Cc1ccc(NC(=O)c2cccc(C(F)(F)F)c2)cc1N1Cc2cnc(Nc3ccc(N4CCN(CCCCC(=O)N[C@H](C(=O)N5C[C@H](O)C[C@H]5C(=O)N[C@@H](C)c5ccc(-c6scnc6C)cc5)C(C)(C)C)CC4)nc3)nc2N(C)C1=O` [DB1113]: in [5] (experiment wp168), the logFC is −1.216 and the “logFC MAPK9” value is reported as −1.216. Besides, the “logFC STK35” value in test [3] (Accession Q8TDR2, experiment wp168, direction down) is −0.7606. Moreover, the “logFC STK35” value in test [3] (STK35 (Q8TDR2), experiment wp168) was −0.7606. Besides, the “logFC TNK2 (Q07912-1)” value in [8] (Experiment wp168) is −0.5351. Moreover, the “logFC TNK2” value in test [8] (experiment wp168) was −0.5351.
With `CC(C)S(=O)(=O)c1ccccc1Nc1nc(Nc2ccc(N3CCN(CCOCCNC(=O)CNc4ccc5c(c4)C(=O)N(C4CCC(=O)NC4=O)C5=O)CC3)cc2)ncc1Cl` (centres unmarked) [SK.3.93], in [6] (experiment wp016), the “logFC CDK2 (P24941-1)” value is listed as −0.5433. Further, the “logFC CDK2 (P24941-1)” value in [6] (experiment wp016, direction of change down) is given as −0.5433. Besides, in test [9] (experiment wp016), the “logFC of CDK5” value is −0.9703 and the “logFC CDK5 (Q00535)” value is −0.9703. In test [1] (experiment wp016), the “logFC LIMK2” value is given as −1.01 and the “logFC of LIMK2” value is −1.01. In test [7], the logFC is given as −0.8057. In test [7] (experiment wp016), the “logFC CDK7” value is −0.8057.
With `Cc1ccc(C(=O)Nc2ccc(CN3CCN(CCOCCOCCNC(=O)CNc4cccc5c4C(=O)N(C4CCC(=O)NC4=O)C5=O)CC3)c(C(F)(F)F)c2)cc1C#Cc1cnc2cccnn12` (centres unmarked) [TL13.150], in test [9] (experiment wp081), the “logFC of CDK5” value was −0.3786 and the “logFC CDK5 (Q00535)” value is listed as −0.3786.
Turning to `CCc1cnn2c(N(Cc3ccc(N)nc3)C(=O)CCOCCOCCOCCNC(=O)CNc3cccc4c3C(=O)N(C3CCC(=O)NC3=O)C4=O)cc(N3CCCC[C@H]3CCO)nc12` (some centres unmarked) [MFH.5.115.2], the “logFC MAP3K1” value in test [2] (setting [10]) and in test [2] (setting [11]) was −0.3528 in each case.
